Assay results published in patent US20240287007A1, “N-(1,3,4-OXADIAZOL-2-YL)PHENYLCARBOXAMIDES AS HERBICIDES” (BAYER AKTIENGESELLSCHAFT, priority 2021, published 2024).

Columns and labels:
Format in all cases: in vivo
[1] = tested on: ALOMY (Alopecurus myosuroides); experiment: Pre-emergence herbicidal effect against ALOMY; settings: scored visually after 3 weeks
Excerpt: (§1) Seeds of monocotyledonous and dicotyledonous weed plants and crop plants are laid out in sandy loam soil in wood-fiber pots and covered with soil. The compounds of the invention, formulated in the form of wettable powders (WP) or as emulsion concentrates (EC), are then applied to the surface of the covering soil as aqueous suspension or emulsion at a water application rate equating to 600 to 800 l/ha with addition of 0.2% wetting agent. After the treatment, the pots are placed in a greenhouse and kept under good growth conditions for the trial plants. The damage to the test plants is scored visually after a test period of 3 weeks by comparison with untreated controls (herbicidal activity in percent (%): 100% activity=the plants have died, 0% activity=like control plants).

[2] = tested on: AMARE (Amaranthus retroflexus); experiment: Pre-emergence herbicidal effect against AMARE; settings: scored visually after 3 weeks
Excerpt: as §1

[3] = tested on: VIOTR (Viola tricolor); experiment: Pre-emergence herbicidal effect against VIOTR; settings: scored visually after 3 weeks
Excerpt: as §1

[4] = tested on: SETVI (Setaria viridis); experiment: Post-emergence herbicidal action against SETVI; settings: visual assessment after about 3 weeks
Method: (§2) Seeds of monocotyledonous and dicotyledonous weed and crop plants are laid out in sandy loam soil in wood-fiber pots, covered with soil and cultivated in a greenhouse under good growth conditions. 2 to 3 weeks after sowing, the trial plants are treated at the one-leaf stage. The compounds of the invention, formulated in the form of wettable powders (WP) or as emulsion concentrates (EC), are then sprayed onto the green parts of the plants as aqueous suspension or emulsion at a water application rate equating to 600 to 800 l/ha with addition of 0.2% wetting agent. After the test plants have been left to stand in the greenhouse under optimal growth conditions for about 3 weeks, the action of the preparations is assessed visually in comparison to untreated controls (herbicidal action in percent (%): 100% activity=the plants have died, 0% activity=like control plants).

[5] = tested on: POLCO (Polygonum convolvulus); experiment: Pre-emergence herbicidal effect against POLCO; settings: scored visually after 3 weeks
Excerpt: as §1

[6] = tested on: KCHSC (Kochia scoparia); experiment: Post-emergence herbicidal action against KCHSC; settings: visual assessment after about 3 weeks
Method: as §2

[7] = tested on: POLCO (Polygonum convolvulus); experiment: Post-emergence herbicidal action against POLCO; settings: visual assessment after about 3 weeks
Method: as §2

[8] = tested on: PHBPU (Pharbitis purpurea); experiment: Pre-emergence herbicidal effect against PHBPU; settings: 80 g/ha, scored visually after 3 weeks
Excerpt: as §1

[9] = tested on: DIGSA (Digitaria sanguinalis); experiment: Pre-emergence herbicidal effect against DIGSA; settings: scored visually after 3 weeks
Excerpt: as §1

[10] = tested on: AVEFA (Avena fatua); experiment: Pre-emergence herbicidal effect against AVEFA; settings: scored visually after 3 weeks
Excerpt: as §1

[11] = tested on: LOLRI (Lolium rigidum); experiment: Post-emergence herbicidal action against LOLRI; settings: visual assessment after about 3 weeks
Method: as §2

[12] = tested on: VERPE (Veronica persica); experiment: Pre-emergence herbicidal effect against VERPE; settings: scored visually after 3 weeks
Excerpt: as §1

[13] = tested on: ECHCG (Echinochloa crus-galli); experiment: Pre-emergence herbicidal effect against ECHCG; settings: scored visually after 3 weeks
Excerpt: as §1

[14] = tested on: ABUTH (Abutylon threophrasti); experiment: Post-emergence herbicidal action against ABUTH; settings: visual assessment after about 3 weeks
Method: as §2

[15] = tested on: PHBPU (Pharbitis purpurea); experiment: Post-emergence herbicidal action against PHBPU; settings: visual assessment after about 3 weeks
Method: as §2

[16] = tested on: SETVI (Setaria viridis); experiment: Pre-emergence herbicidal effect against SETVI; settings: scored visually after 3 weeks
Excerpt: as §1

[17] = tested on: VERPE (Veronica persica); experiment: Post-emergence herbicidal action against VERPE; settings: visual assessment after about 3 weeks
Method: as §2

[18] = tested on: ABUTH (Abutylon threophrasti); experiment: Pre-emergence herbicidal effect against ABUTH; settings: scored visually after 3 weeks
Excerpt: as §1

[19] = tested on: ECHCG (Echinochloa crus-galli); experiment: Post-emergence herbicidal action against ECHCG; settings: visual assessment after about 3 weeks
Method: as §2

[20] = tested on: VIOTR (Viola tricolor); experiment: Post-emergence herbicidal action against VIOTR; settings: visual assessment after about 3 weeks
Method: as §2

[21] = tested on: MATIN (Matricaria inodora); experiment: Post-emergence herbicidal action against MATIN; settings: visual assessment after about 3 weeks
Method: as §2

[22] = tested on: MATIN (Matricaria inodora); experiment: Pre-emergence herbicidal effect against MATIN; settings: scored visually after 3 weeks
Excerpt: as §1

[23] = tested on: AVEFA (Avena fatua); experiment: Post-emergence herbicidal action against AVEFA; settings: visual assessment after about 3 weeks
Method: as §2

[24] = tested on: AMARE (Amaranthus retroflexus); experiment: Post-emergence herbicidal action against AMARE; settings: visual assessment after about 3 weeks
Method: as §2

[25] = tested on: DIGSA (Digitaria sanguinalis); experiment: Post-emergence herbicidal action against DIGSA; settings: visual assessment after about 3 weeks
Method: as §2

[26] = tested on: KCHSC (Kochia scoparia); experiment: Pre-emergence herbicidal effect against KCHSC; settings: scored visually after 3 weeks
Excerpt: as §1

[27] = tested on: LOLRI (Lolium rigidum); experiment: Pre-emergence herbicidal effect against LOLRI; settings: scored visually after 3 weeks
Excerpt: as §1

[28] = tested on: ALOMY (Alopecurus myosuroides); experiment: Post-emergence herbicidal action against ALOMY; settings: visual assessment after about 3 weeks
Method: as §2

C[S+]([O-])c1c(OC(F)F)ccc(C(=O)Nc2nnco2)c1Cl (racemic) [Example 1-22]
Pre-emergence effect at 80 g/ha against ALOMY in % [1]: 80%
Pre-emergence effect at 20 g/ha against AMARE in % [2]: 100%
Pre-emergence effect at 80 g/ha against AMARE in % [2]: 100%
Pre-emergence effect at 20 g/ha against VIOTR in % [3]: 100%
Pre-emergence effect at 80 g/ha against VIOTR in % [3]: 100%
Post-emergence effect at 20 g/ha against SETVI in % [4]: 100%
Post-emergence effect at 80 g/ha against SETVI in % [4]: 100%
Pre-emergence effect at 80 g/ha against POLCO in % [5]: 90%
Post-emergence effect at 20 g/ha against KCHSC in % [6]: 100%
Post-emergence effect at 80 g/ha against KCHSC in % [6]: 100%
Post-emergence effect at 80 g/ha against POLCO in % [7]: 90%
Pre-emergence effect at 80 g/ha against PHBPU in % [8]: 80%
Pre-emergence effect at 20 g/ha against DIGSA in % [9]: 100%
Pre-emergence effect at 80 g/ha against DIGSA in % [9]: 100%
Pre-emergence effect at 80 g/ha against A VEFA in % [10]: 80%
Post-emergence effect at 80 g/ha against LOLRI in % [11]: 90%
Pre-emergence effect at 20 g/ha against VERPE in % [12]: 80%
Pre-emergence effect at 80 g/ha against VERPE in % [12]: 90%
Pre-emergence effect at 20 g/ha against ECHCG in % [13]: 90%
Pre-emergence effect at 80 g/ha against ECHCG in % [13]: 100%
Post-emergence effect at 20 g/ha against ABUTH in % [14]: 100%
Post-emergence effect at 80 g/ha against ABUTH in % [14]: 100%
Post-emergence effect at 80 g/ha against PHBPU in % [15]: 100%
Pre-emergence effect at 20 g/ha against SETVI in % [16]: 90%
Pre-emergence effect at 80 g/ha against SETVI in % [16]: 100%
Post-emergence effect at 20 g/ha against VERPE in % [17]: 90%
Post-emergence effect at 80 g/ha against VERPE in % [17]: 100%
Pre-emergence effect at 20 g/ha against ABUTH in % ([18]; 20 g/ha): 80%
Pre-emergence effect at 80 g/ha against ABUTH in % [18]: 100%
Post-emergence effect at 20 g/ha against ECHCG in % ([19]; 20 g/ha): 100%
Post-emergence effect at 80 g/ha against ECHCG in % ([19]; 80 g/ha): 100%
Post-emergence effect at 20 g/ha against VIOTR in % [20]: 100%
Post-emergence effect at 80 g/ha against VIOTR in % [20]: 100%
Post-emergence effect at 20 g/ha against MATIN in % [21]: 100%
Post-emergence effect at 80 g/ha against MATIN in % [21]: 100%
Pre-emergence effect at 20 g/ha against MATIN in % [22]: 100%
Pre-emergence effect at 80 g/ha against MATIN in % [22]: 100%
Post-emergence effect at 20 g/ha against A VEFA in % ([23]; 20 g/ha): 90%
Post-emergence effect at 80 g/ha against AVEFA in % ([23]; 80 g/ha): 100%
Post-emergence effect at 20 g/ha against AMARE in % [24]: 100%
Post-emergence effect at 80 g/ha against AMARE in % [24]: 100%
Post-emergence effect at 20 g/ha against DIGSA in % [25]: 100%
Post-emergence effect at 80 g/ha against DIGSA in % [25]: 100%
Pre-emergence effect at 20 g/ha against KCHSC in % [26]: 100%
Pre-emergence effect at 80 g/ha against KCHSC in % [26]: 100%

C[S+]([O-])c1c(OC(F)(F)F)ccc(C(=O)Nc2nnco2)c1Cl (racemic) [Example 1-32, 2-chloro-3-(methylsulfinyl)-N-(1,3,4-oxadiazol-2-yl)-4-(trifluoromethoxy)benzamide]
Pre-emergence effect at 20 g/ha against ALOMY in % ([1]; 20 g/ha): 80%
Pre-emergence effect at 80 g/ha against ALOMY in % [1]: 100%
Pre-emergence effect at 20 g/ha against AMARE in % [2]: 100%
Pre-emergence effect at 80 g/ha against AMARE in % [2]: 100%
Pre-emergence effect at 20 g/ha against VIOTR in % [3]: 100%
Pre-emergence effect at 80 g/ha against VIOTR in % [3]: 100%
Post-emergence effect at 20 g/ha against SETVI in % [4]: 100%
Post-emergence effect at 80 g/ha against SETVI in % [4]: 100%
Pre-emergence effect at 20 g/ha against POLCO in % ([5]; 20 g/ha): 90%
Pre-emergence effect at 80 g/ha against POLCO in % [5]: 90%
Post-emergence effect at 20 g/ha against KCHSC in % [6]: 100%
Post-emergence effect at 80 g/ha against KCHSC in % [6]: 100%
Post-emergence effect at 20 g/ha against POLCO in % ([7]; 20 g/ha): 90%
Post-emergence effect at 80 g/ha against POLCO in % [7]: 100%
Pre-emergence effect at 80 g/ha against PHBPU in % [8]: 90%
Pre-emergence effect at 20 g/ha against LOLRI in % ([27]; 20 g/ha): 90%
Pre-emergence effect at 80 g/ha against LOLRI in % ([27]; 80 g/ha): 90%
Pre-emergence effect at 20 g/ha against DIGSA in % [9]: 100%
Pre-emergence effect at 80 g/ha against DIGSA in % [9]: 100%
Pre-emergence effect at 20 g/ha against AVEFA in % ([10]; 20 g/ha): 80%
Pre-emergence effect at 80 g/ha against A VEFA in % [10]: 100%
Post-emergence effect at 80 g/ha against LOLRI in % [11]: 90%
Pre-emergence effect at 20 g/ha against VERPE in % [12]: 80%
Pre-emergence effect at 80 g/ha against VERPE in % [12]: 90%
Pre-emergence effect at 20 g/ha against ECHCG in % [13]: 100%
Pre-emergence effect at 80 g/ha against ECHCG in % [13]: 100%
Post-emergence effect at 20 g/ha against ABUTH in % [14]: 90%
Post-emergence effect at 80 g/ha against ABUTH in % [14]: 100%
Post-emergence effect at 20 g/ha against PHBPU in % ([15]; 20 g/ha): 90%
Post-emergence effect at 80 g/ha against PHBPU in % [15]: 100%
Pre-emergence effect at 20 g/ha against SETVI in % [16]: 90%
Pre-emergence effect at 80 g/ha against SETVI in % [16]: 100%
Post-emergence effect at 20 g/ha against VERPE in % [17]: 90%
Post-emergence effect at 80 g/ha against VERPE in % [17]: 100%
Pre-emergence effect at 80 g/ha against ABUTH in % [18]: 100%
Post-emergence effect at 20 g/ha against VIOTR in % [20]: 100%
Post-emergence effect at 80 g/ha against VIOTR in % [20]: 100%
Post-emergence effect at 20 g/ha against MATIN in % [21]: 100%
Post-emergence effect at 80 g/ha against MATIN in % [21]: 100%
Pre-emergence effect at 20 g/ha against MATIN in % [22]: 100%
Pre-emergence effect at 80 g/ha against MATIN in % [22]: 100%
Post-emergence effect at 20 g/ha against AMARE in % [24]: 100%
Post-emergence effect at 80 g/ha against AMARE in % [24]: 100%
Post-emergence effect at 20 g/ha against DIGSA in % [25]: 90%
Post-emergence effect at 80 g/ha against DIGSA in % [25]: 90%
Pre-emergence effect at 20 g/ha against KCHSC in % [26]: 100%
Pre-emergence effect at 80 g/ha against KCHSC in % [26]: 100%
Post-emergence effect at 20 g/ha against ALOMY in % ([28]; 20 g/ha): 80%
Post-emergence effect at 80 g/ha against ALOMY in % ([28]; 80 g/ha): 90%
